In patent US20240245712A1, “METHODS AND MATERIALS FOR IDENTIFYING AND TREATING MEMBRANOUS NEPHROPATHY” (Mayo Foundation for Medical Education and Research, priority 2023, published 2024):

Test system: syphilis-associated membranous nephropathy (nephrotic syndrome)
Experiment: Follow-up of syphilis-associated NDNF-positive membranous nephropathy patients treated with antibiotics
Assay type: in vivo, human
Description: Biopsies for diagnosis were evaluated. The diagnosis of MN was confirmed by light microscopy (LM), immunofluorescence (IF) microscopy including PLA2R studies, and electron microscopy (EM). The clinical information was obtained from the accompanying charts. For detection of novel proteins, MS/MS was performed in 250 cases of PLA2R-negative cases (discovery cohort) that included cases used for identification of EXT1/EXT2, NELL1, SEMA3B, PCDH7, and FAT1 (Sethi et al., J. Am. Soc. Nephrol., 30:1123-1136 (2019); Sethi et al., Kid. Int., 97:163-174 (2020); Sethi et al., Kid. Int., 98:1253-1265 (2020); Sethi et al., J. Am. Soc. Nephrol., 32:1249-1261 (2021); and Sethi et al., J. Am. Soc. Nephrol., 33:1033-1044 (2022)). A NDNF polypeptide was detected in 3 cases of PLA2R-negative MN (NDNF-associated MN) by MS/MS. All 3 cases were negative for spectral counts for THSD7A, EXT1/EXT2, NELL1, SEMA3B, HTRA1, CNTN1, NCAM1, PCDH7, and FAT1 while baseline spectral counts for PLA2R were present in 2 of the 3 cases.
Using MS/MS, 14 cases of hepatitis B-associated MN and 5 cases of syphilis-associated MN were screened for MN antigens (validation cohort). Tissue from 4 cases (cases 4-7) of syphilis-associated MN were obtained from Cedars Sinai Medical Center and one case (cases 8-9) from Mayo Clinic. Cases 8 and 9 were from the same patient who was biopsied twice, 3 months apart. […]

penicillin
Repeat kidney biopsy finding after treatment (Case 8, repeat biopsy 3 months later, after complete remission): continued to show membranous nephropathy | Outcome of the nephrotic syndrome after antibiotic treatment (patients with syphilis and NDNF-associated MN, follow-up available in 4 of the 6 cases of syphilis): complete remission
